Data from article PMC3681500, “Development of an orally-administrative MELK-targeting inhibitor that suppresses the growth of various types of human cancer” (Oncotarget, 2012).
pIC50: −log10 of the molar value.

Biological target: MELK (maternal embryonic leucine zipper kinase) (Homo sapiens, UniProt Q14680)
Assay: IMAP kinase assay, high-throughput screen followed by dose-response
Assay type: biochemical

MELK (maternal embryonic leucine zipper kinase), sequence (Q14680 whole entry): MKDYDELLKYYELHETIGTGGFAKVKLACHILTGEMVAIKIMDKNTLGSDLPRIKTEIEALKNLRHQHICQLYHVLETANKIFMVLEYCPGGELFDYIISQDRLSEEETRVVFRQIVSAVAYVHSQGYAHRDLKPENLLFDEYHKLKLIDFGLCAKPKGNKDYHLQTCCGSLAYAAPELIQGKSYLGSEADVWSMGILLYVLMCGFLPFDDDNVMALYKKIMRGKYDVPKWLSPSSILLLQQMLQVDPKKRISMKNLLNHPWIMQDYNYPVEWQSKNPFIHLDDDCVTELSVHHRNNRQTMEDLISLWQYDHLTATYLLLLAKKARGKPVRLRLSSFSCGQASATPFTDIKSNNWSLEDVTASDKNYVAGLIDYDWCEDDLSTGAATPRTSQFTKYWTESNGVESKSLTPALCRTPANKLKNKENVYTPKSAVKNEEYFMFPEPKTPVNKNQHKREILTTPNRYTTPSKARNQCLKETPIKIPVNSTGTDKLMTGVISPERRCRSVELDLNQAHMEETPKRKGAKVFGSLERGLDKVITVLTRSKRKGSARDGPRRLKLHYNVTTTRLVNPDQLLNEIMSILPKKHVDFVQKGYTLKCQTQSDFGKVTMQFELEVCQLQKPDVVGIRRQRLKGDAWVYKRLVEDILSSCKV

pIC50: 5.32
SMILES: CCOC(=O)c1ccc2ncc(C(=O)OCC)c(Nc3ccc(NC(C)=O)cc3)c2c1 [compound 1, diethyl 4-(4-acetamidophenylamino) quinoline-3,6-dicarboxylate]
